Source: article PMC12749166, “Fragment-based drug design of a bacterial kinase inhibitor capable of increasing the antibiotic sensitivity of clinical isolates” (Communications Chemistry, 2025)

Columns and labels:
[1] = biological target: T1, APH(2”)-IVa (Enterococcus casseliflavus, UniProt O68183); assay: biochemical; format: binding
Procedure: (§1) ITC experiments were performed on three different machines: a MicroCal VP-ITC (GE Healthcare), a MicroCal PEAQ-ITC (Malvern), or a MicroCal iTC200 (Malvern). The architecture and principles are similar for the three different systems. The experiments were carried out in Buffer HEPES at 25 °C. Titrations consisted of twenty injections of 1.5 µL inhibitors, every 120 seconds, into the measuring cell using the injection syringe rotating at 750 rpm. The data were analyzed using the MicroCal PEAQ-ITC software (v. 1.52, Malvern) using the single-site binding model to fit the raw data. The standard error of the Kd value was determined from measurements made on distinct samples (n indicated in the text).

[2] = biological target: T1, APH(2”)-IVa; assay: biochemical
[3] = tested on: S. aureus C0032; assay: Bacterial growth kinetics over 24 h; format: cell-based; details: for Increase of latency: 500 µM 83
[4] = tested on: S. aureus C0032; assay: Checkerboard assay of 83 with kanamycin A; format: cell-based; details: for MIC of kanamycin A: 0.125 µg mL^−1 imipenem, 18 h at 37 °C; for checkerboard well reading (growth): Supp. Figure 3 C
[5] = biological target: T2, APH(3’)-IIb (Pseudomonas aeruginosa, UniProt Q9HWR2, M95L); assay: Isothermal Titration Calorimetry; format: binding, P. aeruginosa
T2 sequence (Q9HWR2 1-268 M95L): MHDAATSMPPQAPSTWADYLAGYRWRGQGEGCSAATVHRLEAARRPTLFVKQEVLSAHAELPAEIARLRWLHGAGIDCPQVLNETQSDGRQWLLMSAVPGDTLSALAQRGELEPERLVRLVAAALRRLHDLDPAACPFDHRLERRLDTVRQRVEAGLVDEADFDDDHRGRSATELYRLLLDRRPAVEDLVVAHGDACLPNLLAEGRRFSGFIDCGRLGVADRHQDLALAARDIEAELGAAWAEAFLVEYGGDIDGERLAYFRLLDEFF
Procedure: as §1

[6] = biological target: T3, APH(3’)-IIa (Klebsiella pneumoniae, UniProt P00552); assay: Isothermal Titration Calorimetry; format: binding, K. pneumoniae
T3 construct: His-tag (inferred from HisTrap purification); made in house; host or cells: E. coli BL21
Procedure: as §1

[7] = biological target: T2, APH(3’)-IIb; assay: biochemical
Procedure: The reaction mixture consists of the APH and its substrates, as well as a potential inhibitor for inhibition measurements. Reactions were initiated by adding the ATP solution supplemented or not with the inhibitor, in a thermostated beaker containing the APH. […] The reaction was stopped at several time points by adding 80 µL of the enzymatic reaction mixture from the beaker to 40 µL of 10% perchloric acid (PCA) in an Eppendorf tube. Samples were then centrifuged for 30 min at 12750 rpm and 8 °C. 100 µL of the supernatant was then mixed with 900 µL of mobile phase (250 mM NaH2PO4, 50% Acetonitrile, pH 5.5) supplemented with KOH to readjust the pH to 5.5 before injection. […] 100 µL of samples were injected on a SAX PartiSphere column (AIT France) at a flow rate of 1 mL min^−1. ATP and ADP peaks were integrated, and the area under the peaks was calculated using OpenLab CDS software (v. ChemStation, Agilent). The kss values were then measured using linear regression in GraFit software and IC50 determined by fitting with a hyperbola the percentage of inhibition as a function of inhibitor concentration. The standard error of the IC50 value was determined in the GraFit software based on the fitting of the experimental data.

[8] = biological target: T3, APH(3’)-IIa; assay: biochemical; set-up: species or system K. pneumoniae
[9] = biological target: T2, APH(3’)-IIb; assay: biochemical; remark: listed apart in the source
Procedure: Plates were placed in a Clariostar plate reader. […] The initial rate constants (kss) were then measured using a linear regression of the absorbance as a function of time using GraFit software (v. 7.0.3, Erithacus software). Inhibition constants were determined by global fittings of the dependences of kss as a function of ATP and inhibitor concentrations, using a competitive inhibition equation and GraFit software. The standard error of the Ki value was determined in the GraFit software based on the global fitting of four experimental series.

T3 sequence (P00552 whole entry): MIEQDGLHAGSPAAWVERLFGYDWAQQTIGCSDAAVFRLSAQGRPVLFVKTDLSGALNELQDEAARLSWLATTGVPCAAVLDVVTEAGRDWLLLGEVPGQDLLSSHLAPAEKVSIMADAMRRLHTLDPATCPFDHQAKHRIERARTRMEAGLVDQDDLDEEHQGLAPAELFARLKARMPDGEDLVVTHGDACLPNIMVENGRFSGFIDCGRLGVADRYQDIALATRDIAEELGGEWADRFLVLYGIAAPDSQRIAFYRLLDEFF
T1 sequence (O68183 1-301): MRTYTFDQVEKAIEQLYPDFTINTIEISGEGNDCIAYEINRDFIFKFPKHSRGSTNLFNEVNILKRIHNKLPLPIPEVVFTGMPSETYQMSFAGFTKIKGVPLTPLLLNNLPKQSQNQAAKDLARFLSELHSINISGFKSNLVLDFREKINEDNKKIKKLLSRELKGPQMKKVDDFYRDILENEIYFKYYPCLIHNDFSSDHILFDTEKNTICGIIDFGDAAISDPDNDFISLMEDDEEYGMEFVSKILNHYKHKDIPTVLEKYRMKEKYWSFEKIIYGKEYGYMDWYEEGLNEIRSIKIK

Clc1cnc2[nH]ccc2c1-c1ccn[nH]1 [Compound 83]
Kd [1]: 1060 ± 170 nM
ΔH ([1]; ITC): -11.0 kcal/mol
inhibition at 100 µM ([2]; 100 µM of 83): 95%
Ki ([2]; Ki (µM), inhibition constant, ATP-competitive, 0-2 mM MgATP, 100 µM kanamycin A, global fitting): 0.39 ± 0.04 µM
Increase of latency ([3]; 1024 µg mL^−1 kanamycin A): 14 h
Increase of latency ([3]; 2048 µg mL^−1 kanamycin A): 18 h
Growth ([3]; 4096 µg mL^−1 kanamycin A, 250 and 500 µM 83, after 24 h): no growth was detected
Effect on growth kinetics ([3]; 256 and 512 µg mL^−1 kanamycin A, 500 µM 83, absence of imipenem): slowed growth kinetics
Toxicity of 83 alone on bacteria ([3]; up to 500 µM (109 µg mL^−1), no kanamycin A, 24 h): no toxicity
MIC of kanamycin A ([4]; [83] 2 µg mL^−1): 4096 µg/mL
MIC of kanamycin A ([4]; [83] 4 µg mL^−1): 4096 µg/mL
MIC of kanamycin A ([4]; [83] 8 µg mL^−1): 4096 µg/mL
MIC of kanamycin A ([4]; [83] 16 µg mL^−1): 4096 µg/mL
MIC of kanamycin A ([4]; [83] 32 µg mL^−1): 2048 µg/mL
MIC of kanamycin A ([4]; [83] 64 µg mL^−1): 2048 µg/mL
MIC of kanamycin A ([4]; [83] 128 µg mL^−1): 2048 µg/mL
checkerboard well reading (growth) ([4]; 83 1 µg.mL-1, kanamycin A 0 µg.mL-1): 0.496
checkerboard well reading (growth) ([4]; 83 1 µg.mL-1, kanamycin A 2 µg.mL-1): 0.320
checkerboard well reading (growth) ([4]; 83 1 µg.mL-1, kanamycin A 4 µg.mL-1): 0.317
checkerboard well reading (growth) ([4]; 83 1 µg.mL-1, kanamycin A 8 µg.mL-1): 0.300
checkerboard well reading (growth) ([4]; 83 1 µg.mL-1, kanamycin A 16 µg.mL-1): 0.287
checkerboard well reading (growth) ([4]; 83 1 µg.mL-1, kanamycin A 32 µg.mL-1): 0.279
checkerboard well reading (growth) ([4]; 83 1 µg.mL-1, kanamycin A 64 µg.mL-1): 0.255
checkerboard well reading (growth) ([4]; 83 1 µg.mL-1, kanamycin A 128 µg.mL-1): 0.294
checkerboard well reading (growth) ([4]; 83 2 µg.mL-1, kanamycin A 0 µg.mL-1): 0.442
checkerboard well reading (growth) ([4]; 83 2 µg.mL-1, kanamycin A 2 µg.mL-1): 0.315
checkerboard well reading (growth) ([4]; 83 2 µg.mL-1, kanamycin A 4 µg.mL-1): 0.311
checkerboard well reading (growth) ([4]; 83 2 µg.mL-1, kanamycin A 8 µg.mL-1): 0.299
checkerboard well reading (growth) ([4]; 83 2 µg.mL-1, kanamycin A 16 µg.mL-1): 0.295
checkerboard well reading (growth) ([4]; 83 2 µg.mL-1, kanamycin A 32 µg.mL-1): 0.268
checkerboard well reading (growth) ([4]; 83 2 µg.mL-1, kanamycin A 64 µg.mL-1): 0.246
checkerboard well reading (growth) ([4]; 83 2 µg.mL-1, kanamycin A 128 µg.mL-1): 0.245
checkerboard well reading (growth) ([4]; 83 4 µg.mL-1, kanamycin A 0 µg.mL-1): 0.451
checkerboard well reading (growth) ([4]; 83 4 µg.mL-1, kanamycin A 2 µg.mL-1): 0.356
checkerboard well reading (growth) ([4]; 83 4 µg.mL-1, kanamycin A 4 µg.mL-1): 0.318
checkerboard well reading (growth) ([4]; 83 4 µg.mL-1, kanamycin A 8 µg.mL-1): 0.313
checkerboard well reading (growth) ([4]; 83 4 µg.mL-1, kanamycin A 16 µg.mL-1): 0.286
checkerboard well reading (growth) ([4]; 83 4 µg.mL-1, kanamycin A 32 µg.mL-1): 0.267
checkerboard well reading (growth) ([4]; 83 4 µg.mL-1, kanamycin A 64 µg.mL-1): 0.243
checkerboard well reading (growth) ([4]; 83 4 µg.mL-1, kanamycin A 128 µg.mL-1): 0.258
checkerboard well reading (growth) ([4]; 83 8 µg.mL-1, kanamycin A 0 µg.mL-1): 0.402
checkerboard well reading (growth) ([4]; 83 8 µg.mL-1, kanamycin A 2 µg.mL-1): 0.304
checkerboard well reading (growth) ([4]; 83 8 µg.mL-1, kanamycin A 4 µg.mL-1): 0.300
checkerboard well reading (growth) ([4]; 83 8 µg.mL-1, kanamycin A 8 µg.mL-1): 0.292
checkerboard well reading (growth) ([4]; 83 8 µg.mL-1, kanamycin A 16 µg.mL-1): 0.282
checkerboard well reading (growth) ([4]; 83 8 µg.mL-1, kanamycin A 32 µg.mL-1): 0.271
checkerboard well reading (growth) ([4]; 83 8 µg.mL-1, kanamycin A 64 µg.mL-1): 0.244
checkerboard well reading (growth) ([4]; 83 8 µg.mL-1, kanamycin A 128 µg.mL-1): 0.258
checkerboard well reading (growth) ([4]; 83 16 µg.mL-1, kanamycin A 0 µg.mL-1): 0.581
checkerboard well reading (growth) ([4]; 83 16 µg.mL-1, kanamycin A 2 µg.mL-1): 0.303
checkerboard well reading (growth) ([4]; 83 16 µg.mL-1, kanamycin A 4 µg.mL-1): 0.295
checkerboard well reading (growth) ([4]; 83 16 µg.mL-1, kanamycin A 8 µg.mL-1): 0.293
checkerboard well reading (growth) ([4]; 83 16 µg.mL-1, kanamycin A 16 µg.mL-1): 0.274
checkerboard well reading (growth) ([4]; 83 16 µg.mL-1, kanamycin A 32 µg.mL-1): 0.258
checkerboard well reading (growth) ([4]; 83 16 µg.mL-1, kanamycin A 64 µg.mL-1): 0.242
checkerboard well reading (growth) ([4]; 83 16 µg.mL-1, kanamycin A 128 µg.mL-1): 0.200
checkerboard well reading (growth) ([4]; 83 32 µg.mL-1, kanamycin A 0 µg.mL-1): 0.378
checkerboard well reading (growth) ([4]; 83 32 µg.mL-1, kanamycin A 2 µg.mL-1): 0.299
checkerboard well reading (growth) ([4]; 83 32 µg.mL-1, kanamycin A 4 µg.mL-1): 0.294
checkerboard well reading (growth) ([4]; 83 32 µg.mL-1, kanamycin A 8 µg.mL-1): 0.273
checkerboard well reading (growth) ([4]; 83 32 µg.mL-1, kanamycin A 16 µg.mL-1): 0.281
checkerboard well reading (growth) ([4]; 83 32 µg.mL-1, kanamycin A 32 µg.mL-1): 0.249
checkerboard well reading (growth) ([4]; 83 32 µg.mL-1, kanamycin A 64 µg.mL-1): 0.215
checkerboard well reading (growth) ([4]; 83 32 µg.mL-1, kanamycin A 128 µg.mL-1): 0.082
checkerboard well reading (growth) ([4]; 83 64 µg.mL-1, kanamycin A 0 µg.mL-1): 0.357
checkerboard well reading (growth) ([4]; 83 64 µg.mL-1, kanamycin A 2 µg.mL-1): 0.295
checkerboard well reading (growth) ([4]; 83 64 µg.mL-1, kanamycin A 4 µg.mL-1): 0.275
checkerboard well reading (growth) ([4]; 83 64 µg.mL-1, kanamycin A 8 µg.mL-1): 0.274
checkerboard well reading (growth) ([4]; 83 64 µg.mL-1, kanamycin A 16 µg.mL-1): 0.256
checkerboard well reading (growth) ([4]; 83 64 µg.mL-1, kanamycin A 32 µg.mL-1): 0.227
checkerboard well reading (growth) ([4]; 83 64 µg.mL-1, kanamycin A 64 µg.mL-1): 0.165
checkerboard well reading (growth) ([4]; 83 64 µg.mL-1, kanamycin A 128 µg.mL-1): 0.053
checkerboard well reading (growth) ([4]; 83 128 µg.mL-1, kanamycin A 0 µg.mL-1): 0.433
checkerboard well reading (growth) ([4]; 83 128 µg.mL-1, kanamycin A 2 µg.mL-1): 0.365
checkerboard well reading (growth) ([4]; 83 128 µg.mL-1, kanamycin A 4 µg.mL-1): 0.303
checkerboard well reading (growth) ([4]; 83 128 µg.mL-1, kanamycin A 8 µg.mL-1): 0.296
checkerboard well reading (growth) ([4]; 83 128 µg.mL-1, kanamycin A 16 µg.mL-1): 0.283
checkerboard well reading (growth) ([4]; 83 128 µg.mL-1, kanamycin A 32 µg.mL-1): 0.276
checkerboard well reading (growth) ([4]; 83 128 µg.mL-1, kanamycin A 64 µg.mL-1): 0.204
checkerboard well reading (growth) ([4]; 83 128 µg.mL-1, kanamycin A 128 µg.mL-1): 0.066
Impact of 83 alone on bacterial growth ([4]; absence of antibiotics, 83 from 0 to 128 µg mL^−1 (585 µM)): no impact on bacterial growth
Kd [5]: 270 ± 50 nM
ΔH ([5]; ITC): -13.6 kcal/mol
Kd [6]: 1250 nM
ΔH ([6]; ITC): -13.1 kcal/mol
IC50 [7]: 1230 ± 40 nM
inhibition at 100 µM [8]: 76%
inhibition at 100 µM [9]: 91%
